Values quoted from earlier work, collected in US11883631B2 (priority 2015, dated 2024).

Tests used:
[1] = in vivo
[2] = in vivo; remark: listed apart in the source
[3] = EEG monitor effect site; 18-60 yr
[4] = 10 mg/s vs 2 mg/s

CC(C)c1cccc(C(C)C)c1O [propofol]
Reductions in systolic blood pressure (SBP) (during induction of anesthesia with propofol): greater than 25%
plasma concentration at which propofol may significantly decrease SBP (patients aged 20-85 yr, effect more evident in elderly (>70 yr)): > 10000 ng/mL
effect-site concentration at burst suppression onset [1]: higher than 8 μg/ml
Propofol concentration associated with awakening from anesthesia [2]: < 1.8 µg/mL
ke0 [3]: 0.456 min⁻¹
drop in mean arterial pressure, higher vs lower infusion rate [4]: larger drop in mean arterial pressure
